# In patent US20190038597A1, “PREVENTION OF VASCULAR AND CARDIAC FIBROSIS VIA IRE1ALPHA INHIBITION” (McMaster University, priority 2017, published 2019):
# Columns and labels:
# Assay type in all cases: in vivo, rat
# [1] = test system: spliced XBP1, GRP78, PDI; experiment: Aortic collagen chaperone and ER stress marker expression (qRT-PCR, Western blot) in L-NAME-treated SHRs
# Description: 12-14 week old male SHRs were randomized to receive vehicle, L-NAME (50 mg/L) or L-NAME and 4μ8c (2.5 mg/kg/day i.p.) for 18 days. Total RNA was extracted from flash frozen aortic tissues. (A) qRT-PCR was used to assess relative mRNA expression of spliced XBP1 and GRP78. 18S was used as a housekeeping gene. (B) Protein levels of PDI and GRP78 were assessed by western blotting and normalized to β-actin. Data is presented as mean±SEM. *, p<0.05 vs. NT. #, p<0.05 vs L-NAME.
# (§1) 12-14 week old male SHRs were used to determine the effect of pharmacological IRE1α inhibition on L-NAME-induced vascular stiffening. They were maintained on a 12-hour light-dark cycle with rat chow and water ad libitium. Animals were implanted with radio-telemetry devices (Data Science International, St. Paul, Minn., USA) one week before the start of the study. Animals were randomized into one of three groups (n=6 per group): 1) No treatment, 2) L-NAME (50 mg/L in drinking water, Sigma-Aldrich), or 3) L-NAME+4μ8c (2.5 mg/kg/day i.p., Millipore). 4μ8c was administered in a vehicle of 10% DMSO, 10% Tween-80 and 80% normal saline. Animals in Group 2 received daily injections of the vehicle. All animals were fed a normal chow diet. At 18 days, animals were sacrificed, organs were harvested and the aorta was collected for mechanical and structural analysis. All animal work was performed according to the guidelines approved by the McMaster University Animal Research Ethics Board.
# Total RNA was extracted from cultured cells and rat tissues using the TRIzol reagent (ThermoFisher) according to manufacturer's instructions. RNA concentration and purity were measured using a Nanodrop ND-1000 spectrophotometer (NanoDrop Technologies, Inc.). […]
# For qRT-PCR, cDNA was amplified using the Fast SYBR Green Master Mix (ThermoFisher) and analyzed with 7500 Software. […]
# Cells were lysed in 1× Laemmli buffer and protein content was quantified using the BioRad DC Protein Assay (BioRad, Mississauga, Canada). […]
# [2] = test system: SHR/L-NAME model of hypertension; experiment: Vascular stiffness by wire myograph in L-NAME-treated SHRs; settings: L-NAME+4μ8c group, 18 days, maximally relaxed vessels
# Description: 12-14 week old male SHRs were randomized to receive vehicle, L-NAME (50 mg/L) or L-NAME and 4μ8c (2.5 mg/kg/day i.p.) for 18 days. Aortas and carotid arteries were removed at sacrifice for mechanical and structural analysis. (A) Picro-Sirius Red staining of aorta and carotid artery sections (B) Determination of soluble collagen content in aorta and carotid arteries by Picro-Sirius Red-based assay. Stress-strain curves (C,E), elastic modulus-stress lines (D,F) and the slope of the elastic modulus-stress lines (G,H) were calculated. Data is presented as mean±SEM. *, p<0.05 vs. NT; #, p<0.05 vs. L-NAME. N≥4 per group; 2-5 segments of the thoracic aorta were analyzed per animal. […]
# Vessels were mounted on a steel wire myograph and incubated in Ca^2±-free Hank's Basic Salt Solution containing 100 μM sodium nitroprusside to ensure maximum relaxation. […] Images of the vessels at each incremental tension were captured and lumen diameters were measured with ImageJ software. Circumferential stress (a) was calculated as F/tl, where F is the tension in the vessel wall, t is the radial thickness of the vessel wall and 1 is the axial length of the aortic ring. Circumferential strain (c) was calculated as (D−D0)/D0 where D is the lumen diameter at a given tension and D0 is the initial diameter under maximally relaxed conditions. […]
# [3] = test system: SHR/L-NAME model of hypertension; experiment: Cardiac hypertrophy and fibrosis in L-NAME-treated SHRs
# Description: 12-14 week old male SHRs were randomized to receive vehicle, L-NAME (50 mg/L) or L-NAME and 4μ8c (2.5 mg/kg/day i.p.) for 18 days. (A) Cardiac hypertrophy measured using heart weight to body ratio. (B) Quantification of Picro-Sirius Red-stained area in heart tissue. (C) Picro-Sirius Red staining of transverse heart sections. Bar: 4×, 500 μm; 20×, 200 μm. Data is presented as mean±SEM. *, p<0.05 vs. NT. #, p<0.05 vs L-NAME.
# as §1, with “At 18 days, animals were sacrificed, organs were harvested and the aorta was collected for mechanical and structural analysis. All animal work was performed according to the guidelines approved by the McMaster University Animal Research Ethics Board.” left out
# Tissues were fixed in 4% paraformaldehyde and subsequently embedded in paraffin. […] Collagen area density was calculated by dividing the PSR-stained area by the total area of the vessel.
smiles,measurement,setting,value
"Cc1cc(=O)oc2c(C=O)c(O)ccc12 [4μ8c, 7-Hydroxy-4-methyl-2-oxo-2H-chromene-8-carbaldehyde]",GRP78 protein in the aorta,"[1]; L-NAME+4μ8c group compared to the other two groups, Western blot",significantly decreased
same,PDI protein expression in the aorta,"[1]; L-NAME+4μ8c group vs L-NAME group, Western blot",significantly decreased
same,Spliced XBP1 and GRP78 mRNA expression in the aorta,"[1]; L-NAME+4μ8c group vs L-NAME group, qRT-PCR, FIG. 6A",reduced
same,"slope of the elastic modulus-stress line, carotid artery",[2],14.42±0.59
same,"slope of the incremental elastic modulus versus stress line, aorta",[2],3.970±0.129
same,fibrosis in the left and right ventricles by PSR staining,"[3]; 4μ8c-treated animals vs L-NAME group, FIGS. 7B and 7C",significantly reduced
same,cardiac hypertrophy (heart weight to body weight ratio),"[3]; L-NAME+4μ8c group, 18 days, FIG. 7A",4.293±0.438 mg HW/g BW
